Test results published in publication PMC3832412 (PLoS ONE, 2013).
Where “and” joins values, the source holds several entries; their conditions need not be identical. Equal values may be shown once. Read-outs that look alike come from different tables or passages of the source.

What was measured:
[1] = system: NMDAR in primary rat hippocampal neurons; type: cell-based, rat (Sprague-Dawley)
GluN2A subunit = conditions: ref [41], cited from earlier work

| SMILES | inhibition of iCa^2+ influx [1] | NMDAR subunit specificity (GluN2A subunit; 60 nM) | NMDAR subunit specificity (GluN2A subunit; 400 nM) |
| --- | --- | --- | --- |
| C[C@H](NC(c1cccc2[nH]c(=O)c(=O)[nH]c12)P(=O)(O)O)c1ccc(Br)cc1 (stereo partly shown) [NVP-AAM007] | 46% and 64% | specifically inhibits the GluN2A subunit | non-subunit specific |
| CC(C(O)c1ccc(O)cc1)N1CCC(Cc2ccccc2)CC1 (stereo not shown) [ifenprodil] | 64% | – | – |
